Test system: HIV with mutations in the HIV protease sequence
Assay: Phenotypic fold resistance to protease inhibitors, protease mutations 84A/84L/84C/54M/54L/54V in a background (Examples 8-13)
Format: cell-based, HIV-1
Method in brief: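 Recombinant-virus phenotyping: patient-derived PR/RT sequences amplified by PCR and recombined in CD4+ T cells into an HXB2 proviral clone deleted for those sequences. Chimeric viruses grown across drug concentrations; IC50 determined, and fold-resistance expressed as IC50 ratio versus wild-type susceptible laboratory HIV-1 tested in parallel.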

## CC(C)(C)NC(=O)[C@@H]1C[C@@H]2CCCC[C@@H]2CN1C[C@@H](O)[C@H](Cc1ccccc1)NC(=O)[C@H](CC(N)=O)NC(=O)c1ccc2ccccc2n1 [Saquinavir, saquinavir]
Table 9 #1, protease genotype WT
  mean fold increase in resistance: 0.9 fold
Table 9 #2, protease genotype 10I
  mean fold increase in resistance: 0.9 fold
Table 9 #3, protease genotype 46I
  mean fold increase in resistance: 0.6 fold
Table 9 #4, protease genotype 46I + 84V
  mean fold increase in resistance: 2.5 fold
Table 9 #5, protease genotype 46I + 84A
  mean fold increase in resistance: 38.1 fold
Table 9 #6, protease genotype 10I + 46I
  mean fold increase in resistance: 0.5 fold
Table 9 #7, protease genotype 10I + 46I + 84V
  mean fold increase in resistance: 4.1 fold
Table 9 #8, protease genotype 10I + 46I + 84A
  mean fold increase in resistance: 48.2 fold
Table 9 #9, protease genotype 10L/I + 46I + 84A
  mean fold increase in resistance: 46.4 fold
Table 9 #10, protease genotype 10I + 46I + 84A
  mean fold increase in resistance: 42.8 fold
Table 9 #11, protease genotype 46I + 71V
  mean fold increase in resistance: 0.6 fold
Table 9 #12, protease genotype 46I + 71V + 84V/I
  mean fold increase in resistance: 0.6 fold
Table 9 #13, protease genotype 46I + 71V + 84A
  mean fold increase in resistance: 47.7 fold
Table 9 #14, protease genotype 10F + 46I + 71V
  mean fold increase in resistance: 1.9 fold
Table 9 #15, protease genotype 10I + 46I + 71V + 84V
  mean fold increase in resistance: 15.9 fold
Table 9 #16, protease genotype 10I + 46I + 71V + 84A
  mean fold increase in resistance: 48.2 fold
Table 9 #17, protease genotype 10V + 46I + 71T + 84A
  mean fold increase in resistance: 48.2 fold
Table 9 #18, protease genotype 10I + 46I + 71V + 77I
  mean fold increase in resistance: 1.3 fold
Table 9 #19, protease genotype 10I + 46I + 71V + 77I + 84V
  mean fold increase in resistance: 2.5 fold
Table 9 #20, protease genotype 10I + 46I + 71V + 77I + 84A
  mean fold increase in resistance: 47.1 fold
Table 9 #21, protease genotype 10I + 33L/I + 46I + 71V + 77V/I + 84A
  mean fold increase in resistance: 44.7 fold
Table 10 #1, protease genotype 10I + 36I + 71V
  mean fold increase in resistance: 1.6 fold
Table 10 #2, protease genotype 10I + 36I + 71I + 84V
  mean fold increase in resistance: 0.8 fold
Table 10 #3, protease genotype 10I + 36I + 71I + 84L
  mean fold increase in resistance: 10.2 fold
Table 11 #1, protease genotype WT
  mean fold increase in resistance: 0.9 fold
Table 11 #2, protease genotype 84V
  mean fold increase in resistance: 0.7 fold
Table 11 #3, protease genotype 84C
  mean fold increase in resistance: 26.4 fold
Table 11 #4, protease genotype 10I
  mean fold increase in resistance: 0.9 fold
Table 11 #5, protease genotype 10I + 84V
  mean fold increase in resistance: 2.7 fold
Table 11 #6, protease genotype 10I + 84C
  mean fold increase in resistance: 37.1 fold
Table 11 #7, protease genotype 77I
  mean fold increase in resistance: 0.3 fold
Table 11 #8, protease genotype 77I + 84V
  mean fold increase in resistance: 3.5 fold
Table 11 #9, protease genotype 77I + 84C
  mean fold increase in resistance: 18.1 fold
Table 11 #10, protease genotype 77I + 84C
  mean fold increase in resistance: 18.5 fold
Table 11 #11, protease genotype 10I + 24I + 36I + 46I + 71V + 84C
  mean fold increase in resistance: 46.4 fold
Table 12, V19263, genotype 77I
  Fold change in IC50: 0.3 fold
Table 12, V20160, genotype WT
  Fold change in IC50: 0.9 fold
Table 12, V021667, genotype 10I
  Fold change in IC50: 0.9 fold
Table 12, V030496, genotype 10I + 77I
  Fold change in IC50: 0.3 fold
Table 12, V048869, genotype 10I + 54M + 77I + 90M
  Fold change in IC50: 5.1 fold
Table 12, V048872, genotype 33F + 54M + 77I + 90M
  Fold change in IC50: 5.2 fold
Table 12, V048873, genotype 33F + 54M + 77I + 90M
  Fold change in IC50: 3.1 fold
Table 12, V048877, genotype 10I + 33F + 77I + 90M
  Fold change in IC50: 1.5 fold
Table 12, V048878, genotype 10I + 33F + 54M + 71V + 77I + 90M
  Fold change in IC50: 4.0 fold
Table 12, V048879, genotype 10I + 33F + 54M + 71V + 77I + 90M
  Fold change in IC50: 51.8 fold
Table 12, V048880, genotype 10I + 33F + 77I + 90M
  Fold change in IC50: 2.7 fold
Table 12, V052940, genotype 71V
  Fold change in IC50: 0.8 fold
Table 12, V052942, genotype 10I + 71V
  Fold change in IC50: 0.8 fold
Table 12, V052943, genotype 10I + 90M
  Fold change in IC50: 1.1 fold
Table 12, V052944, genotype 10I + 90M
  Fold change in IC50: 0.7 fold
Table 12, V052945, genotype 77I + 90M
  Fold change in IC50: 1.4 fold
Table 12, V052946, genotype 71V + 90M
  Fold change in IC50: 1.4 fold
Table 12, V052947, genotype 10I + 77I + 90M
  Fold change in IC50: 3.9 fold
Table 12, V052948, genotype 10I + 71V + 90M
  Fold change in IC50: 4.8 fold
Table 12, V052949, genotype 10I + 71V + 77I + 90M
  Fold change in IC50: 2.1 fold
Table 12, V052950, genotype 33F
  Fold change in IC50: 1.2 fold
Table 12, V052951, genotype 33F + 77I
  Fold change in IC50: 0.4 fold
Table 12, V052953, genotype 10I + 33F + 77I
  Fold change in IC50: 1.2 fold
Table 12, V052954, genotype 33F + 77I + 90M
  Fold change in IC50: 1.7 fold
Table 12, V052955, genotype 33F + 71V + 90M
  Fold change in IC50: 20.4 fold
Table 12, V052977, genotype 10I + 33F + 54M
  Fold change in IC50: 0.5 fold
Table 12, V052978, genotype 10I + 33F + 54M + 71V + 90M
  Fold change in IC50: 9.9 fold
Table 12, V052979, genotype 10I + 54M
  Fold change in IC50: 1.4 fold
Table 12, V052980, genotype 10I + 54M + 90M
  Fold change in IC50: 1.4 fold
Table 12, V052981, genotype 10I + 54M + 71V + 90M
  Fold change in IC50: 5.4 fold
Table 12, V052982, genotype 10I + 54M + 71V + 77I + 90M
  Fold change in IC50: 4.2 fold
Table 12, V053832, genotype 10I + 33F
  Fold change in IC50: 0.5 fold

Source: patent publication US8574831B2, “Mutational profiles in HIV-1 reverse transcriptase correlated with phenotypic drug resistance” (Virco N.V., priority 2000, dated 2013)
